The values that follow come from US20230248833A1, “COMPOUND HAVING BTK KINASE DEGRADING ACTIVITY, AND PREPARATION METHOD AND PHARMACEUTICAL USE THEREFOR” (SICHUAN HAISCO PHARMACEUTICAL CO., LTD., priority 2020, published 2023).

The test system of series [1] is Mino cells. Briefly: Inhibition of cell proliferation, Mino cells (Cell Viability Assay, 72 h). The conditions noted are these: for IC50: Homo sapiens, MINO, 72 h; for Mino Max inhi. %: inhibition rate at the highest concentration of the compound. In kind it is cell-based, human. The procedure:
SU-DHL-4, Mino, and SU-DHL-6 cells, in the culture medium of RPMI1640+10% FBS, were cultured in an incubator at 37° C. under 5% CO2. Cells were plated in a 96-well plate. Specifically, SU-DHL-4 cells were at 20000/well, Mino and SU-DHL-6 cells were at 5000/well, with 90 μL/well. 10 μL of the compounds at different concentrations were added to each well. There were 3 replicate wells for each concentration, and the last column, added with DMSO, was used as a vehicle control group. The cultures were continued for 72 hours at 37° C. under 5% CO2. After 72 hours, 100 μL of detection reagent (Cell Viability Assay, Promega, G7573) was added to each well, and the cultures were uniformly mixed for 2 minutes, and incubated at room temperature for 10 minutes. The […] signal value was measured with a microplate reader (PHERAstar FSX). The IC50 value of the compound on cell proliferation inhibition was calculated using origin9.2 software, and the inhibition rate at the highest concentration of the compound (Max inhi.%) was calculated according to formula (1).
Max inhi.%=(1−T72administration/T72vehicle)×100 Formula (1).

A short description of series [2]: Pharmacokinetic experiment in rats. The conditions noted are these: male, SD, rat, po, plasma, i.g. (20 mg/kg); for AUC(0-t): single dose. Type of series: in vivo. The procedure:
Experimental objective: In this experiment, a single dose of each test compound was administered to SD rats intravenously and intragastrically, the concentrations of the test compound in plasma of rats were measured, and the pharmacokinetic characteristics and bioavailability of the test compound in rats were evaluated.
Experimental animals: Male SD rats, about 200 g, 6-8 weeks old, 6 rats/compound. Rats were purchased from Hunan SJA Laboratory Animal Co., Ltd, with the laboratory animal production license number of SCXK (Xiang) 2019-004.
Experimental method: On the day of the experiment, 6 SD rats were randomly grouped according to their body weight. The animals were fasted with water available for 12 to 14 hours one day before the administration of a test compound, and were fed 4 hours after the administration.
Before and after the administration, […] of blood was taken from the orbit of the rats under isoflurane anesthesia, and placed in an EDTAK2 centrifuge tube. Centrifugation was carried out at 5000 rpm at 4° C. for 10 min, and the plasma was collected.
Time points for sample collection in G1&G2 groups comprise
Before analysis and detection, all samples were stored at −80° C. The samples were detected by HPLC-MS/MS.

Each structure is given as a SMILES string.

By IC50 is commonly meant the concentration needed to halve the response being measured. Lower therefore signals greater potency. For the molecule `Nc1ncnc2c1c(-c1ccc(Oc3ccccc3)cc1)nn2C1CC2(CCN(C3CN(C4CN(c5ccc6c(c5)C(=O)N(C5CCC(=O)NC5=O)C6=O)C4)C3)CC2)C1` (stereo not shown) [Compound 65, 5-(3-(2-(4-amino-3-(4-phenoxyphenyl)-1H-pyrazolo[3,4-d]pyrimidin-1-yl)-7-azaspiro[3.5]nonan-7-yl)-[1,3′-biazetidin]-1′-yl)-2-(2,6-dioxopiperidin-3-yl) isoindoline-1,3-dione], the IC50 in series [1] stood at 14 nM.

The molecule `Nc1ncnc2c1c(-c1ccc(Oc3ccccc3)cc1)nn2C1CC2(CCN(C3CC4(CCN(c5ccc6c(c5)C(=O)N(C5CCC(=O)NC5=O)C6=O)CC4)C3)CC2)C1` (stereo not shown) [Compound 66, 5-(2′-(4-amino-3-(4-phenoxyphenyl)-1H-pyrazolo[3,4-d]pyrimidin-1-yl)-7,7′-diaza[2,7′-bispiro[3.5]nonan]-7-yl)-2-(2,6-dioxopiperidin-3-yl)isoindoline-1,3-dione] registered an IC50 in series [1] of 27 nM.

For `Nc1ncnc2c1c(-c1ccc(Oc3ccccc3)cc1)nn2C1CCN(C2(C(F)(F)F)CCN(C3CN(c4ccc5c(c4)C(=O)N(C4CCC(=O)NC4=O)C5=O)C3)CC2)CC1` (stereo not shown) [Compound 70, 5-(3-(4-(4-amino-3-(4-phenoxyphenyl)-1H-pyrazolo[3,4-d]pyrimidin-1-yl)-4′-(trifluoromethyl)-[1,4′-bipiperidin]-1′-yl)azetidin-1-yl)-2-(2,6-dioxopiperidin-3-yl)isoindoline-1,3-dione], in series [1], the IC50 worked out at 101 nM.

In the case of `Nc1ncnc2c1c(-c1ccc(Oc3ccccc3)cc1)nn2C1CCN(C2CN(C3CN(C(=O)CC45CC6CC(CC(C6)C4)C5)C3)C2)CC1` [Compound 72, 2-(1-adamantyl)-1-[3-[3-[4-[4-amino-3-(4-phenoxyphenyl)pyrazolo[3,4-d]pyrimidin-1-yl]-1-piperidyl]azetidin-1-yl]azetidin-1-yl]ethanone], in series [1], the IC50 lay within 10 to 1000 nM and the “Mino Max inhi. %” value is recorded as 88.5%.

Take `Nc1ncnc2c1c(-c1ccc(Oc3ccccc3)cc1)nn2C1CCN(C2CCN(C3CN(C(=O)CC45CC6CC(CC(C6)C4)C5)C3)CC2)CC1` [Compound 73, 2-(1-adamantyl)-1-(3-(4-(4-amino-3-(4-phenoxyphenyl)pyrazolo[3,4-d]pyrimidin-1-yl)-[1,4′-bipiperidin]-1′-yl)azetidin-1-yl)ethan-1-one]: the “Mino Max inhi. %” value in series [1] is reported as 99.8%.

For the molecule `Nc1ncnc2c1c(-c1ccc(Oc3ccccc3)cc1)nn2C1CCN(C2CN(C(=O)CC34CC5CC(CC(C5)C3)C4)C2)CC1` [Compound 74, 2-((3r,5r,7r)-adamantan-1-yl)-1-(3-(4-(4-amino-3-(4-phenoxyphenyl)-1H-pyrazolo[3,4-d]pyrimidin-1-yl)piperidin-1-yl)azetidin-1-yl)ethanone], in series [1], the “Mino Max inhi. %” value was determined as 88.3%.

For `Nc1ncnc2c1c(-c1ccc(Oc3ccccc3)cc1)nn2C1CCC2(CC1)CN(C1CN(c3ccc4c(c3)C(=O)N(C3CCC(=O)NC3=O)C4=O)C1)C2` (stereo not shown) [Compound 75, 5-(3-(7-(4-amino-3-(4-phenoxyphenyl)-1H-pyrazolo[3,4-d]pyrimidin-1-yl)-2-azaspiro[3.5]nonan-2-yl)azetidin-1-yl)-2-(2,6-dioxopiperidin-3-yl)isoindoline-1,3-dione], the IC50 in series [1] was 37 nM.

The molecule `Nc1ncnc2c1c(-c1ccc(Oc3ccccc3)cc1)nn2C1CCN(C2CN(C3CN(c4ccc5c(n4)CN(C4CCC(=O)NC4=O)C5=O)C3)C2)CC1` (stereo not shown) [Compound 76, 3-(2-(3-(4-(4-amino-3-(4-phenoxyphenyl)-1H-pyrazolo[3,4-d]pyrimidin-1-yl)piperidin-1-yl)-[1,3′-biazetidin]-1′-yl)-5-oxo-5,7-dihydro-6H-pyrrolo[3,4-b]pyridin-6-yl)piperidine-2,6-dione] had an IC50 in series [1] of 141 nM.

Turning to `NC(=O)c1c(-c2ccc(Oc3ccccc3)cc2)nn2c1NCC[C@H]2C1CCN(C2CN(CC3CN(c4ccc5c(c4)C(=O)N(C4CCC(=O)NC4=O)C5=O)C3)C2)CC1` (stereo partly drawn) [Compound 80, (7S)-7-(1-(1-((1-(2-(2,6-dioxopiperidin-3-yl)-1,3-dioxoisoindolin-5-yl)azetidin-3-yl)methyl)azetidin-3-yl)piperidin-4-yl)-2-(4-phenoxyphenyl)-4,5,6,7-tetrahydropyrazolo[1,5-a]pyrimidine-3-carboxamide], the “Mino Max inhi. %” value in series [1] is recorded as 99.1%.

As to `NC(=O)c1c(-c2ccc(Oc3ccccc3)cc2)nn2c1NCC[C@H]2C1CCN(C2CCN(CC3CCN(c4ccc5c(c4)C(=O)N(C4CCC(=O)NC4=O)C5=O)CC3)CC2)CC1` (stereo partly drawn) [Compound 81, (7S)-7-(1′-((1-(2-(2,6-dioxopiperidin-3-yl)-1,3-dioxoisoindolin-5-yl)piperidin-4-yl)methyl)-[1,4′-bipiperidin]-4-yl)-2-(4-phenoxyphenyl)-4,5,6,7-tetrahydropyrazolo[1,5-a]pyrimidine-3-carboxamide], the “Mino Max inhi. %” value in series [1] is reported as 99.9%.

As to `NC(=O)c1c(-c2ccc(Oc3ccccc3)cc2)nn2c1NCC[C@H]2C1CCN(C2CCN(CC3CN(c4ccc5c(c4)C(=O)N(C4CCC(=O)NC4=O)C5=O)C3)CC2)CC1` (stereo partly drawn) [Compound 82, (7S)-7-(1′-((1-(2-(2,6-dioxopiperidin-3-yl)-1,3-dioxoisoindolin-5-yl)azetidin-3-yl)methyl)-[1,4′-bipiperidin]-4-yl)-2-(4-phenoxyphenyl)-4,5,6,7-tetrahydropyrazolo [1,5-a]pyrimidine-3-carboxamide], the “Mino Max inhi. %” value in series [1] worked out at 99.9%.

With `NC(=O)c1c(-c2ccc(Oc3ccccc3)cc2)nn2c1NCC[C@H]2C1CCN(CC2CCN(c3ccc4c(c3)C(=O)N(C3CCC(=O)NC3=O)C4=O)CC2)CC1` (stereo partly drawn) [Compound 83, (7S)-7-(1-((1-(2-(2,6-dioxopiperidin-3-yl)-1,3-dioxoisoindolin-5-yl)piperidin-4-yl)methyl)piperidin-4-yl)-2-(4-phenoxyphenyl)-4,5,6,7-tetrahydropyrazolo[1,5-a]pyrimidine-3-carboxamide], the “Mino Max inhi. %” value in series [1] stood at 99.7%.

A word on the AUC(0-t): it is exposure summed from dosing to a finite time, without extrapolation to infinity. Regarding `Nc1ncnc2c1c(-c1ccc(Oc3ccccc3)cc1)nn2C1CCN(C2CCN(CC3CN(c4ccc5c(c4)C(=O)N(C4CCC(=O)NC4=O)C5=O)C3)CC2)CC1` (stereo not shown) [Compound 84, 5-(3-((4-(4-amino-3-(4-phenoxyphenyl)-1H-pyrazolo[3,4-d]pyrimidin-1-yl)-[1,4′-bipiperidin]-1′-yl)methyl)azetidin-1-yl)-2-(2,6-dioxopiperidin-3-yl)isoindoline-1,3-dione], the IC50 in series [1] came to 32 nM. This molecule showed an AUC(0-t) in series [2] of 176 ± 57 ng·h/mL.

For `Nc1ncnc2c1c(-c1ccc(Oc3ccccc3)cc1)nn2C1CCN(C2CCN(CC3CCN(c4ccc5c(c4)C(=O)N(C4CCC(=O)NC4=O)C5=O)CC3)CC2)CC1` (stereo not shown) [Compound 86, 5-(4-((4-(4-amino-3-(4-phenoxyphenyl)-1H-pyrazolo[3,4-d]pyrimidin-1-yl)-[1,4′-bipiperidin]-1′-yl)methyl)piperidin-1-yl)-2-(2,6-dioxopiperidin-3-yl)isoindoline-1,3-dione], in series [1], the IC50 came out at 42 nM. The molecule further registered an AUC(0-t) in series [2] of 247 ± 73 ng·h/mL.

For orientation: bioavailability means the share of a dose that reaches the circulation, judged against a reference dose that is usually intravenous. Lower therefore signals poor availability. With `Nc1ncnc2c1c(-c1ccc(Oc3ccccc3)c(F)c1)nn2C1CCN(C2CN(C3CN(c4ccc5c(c4)C(=O)N(C4CCC(=O)NC4=O)C5=O)C3)C2)CC1` (stereo not shown) [Compound 95, 5-(3-(4-(4-amino-3-(3-fluoro-4-phenoxyphenyl)-1H-pyrazolo[3,4-d]pyrimidin-1-yl)piperidin-1-yl)-[1,3′-biazetidin]-1′-yl)-2-(2,6-dioxopiperidin-3-yl)isoindoline-1,3-dione], half-maximal inhibition in series [1] (IC50) was put at 100 nM. Besides, the bioavailability in series [2] (bioavailability) was determined as 12.3 ± 2.1%. This molecule returned an AUC(0-t) in series [2] of 4270 ± 739 ng·h/mL.

In series [1], `Nc1ncnc2c1c(-c1ccc(Oc3ccccc3)c(F)c1)nn2C1CCN(C2CCN(C3CN(c4ccc5c(c4)C(=O)N(C4CCC(=O)NC4=O)C5=O)C3)CC2)CC1` (stereo not shown) [Compound 96, 5-(3-(4-(4-amino-3-(3-fluoro-4-phenoxyphenyl)-1H-pyrazolo[3,4-d]pyrimidin-1-yl)-[1,4′-bipiperidin]-1′-yl)azetidin-1-yl)-2-(2,6-dioxopiperidin-3-yl)isoindoline-1,3-dione] displayed an IC50 of 501 nM.

In the case of `Nc1ncnc2c1c(-c1ccc(Oc3ccccc3)cc1)nn2C1CCN(C2CN(CC3CN(c4ccc5c(c4)CN(C4CCC(=O)NC4=O)C5=O)C3)C2)CC1` (stereo not shown) [Compound 107, 3-(5-(3-((3-(4-(4-amino-3-(4-phenoxyphenyl)-1H-pyrazolo[3,4-d]pyrimidin-1-yl)piperidin-1-yl)azetidin-1-yl)methyl)azetidin-1-yl)-1-oxoisoindolin-2-yl)piperidine-2,6-dione], the AUC(0-t) in series [2] was found to be 610 ± 131 ng·h/mL.
